From patent publication US10131652B2, “Pyrimidinyloxy benzene derivatives as herbicides” (E. I. DU PONT DE NEMOURS AND COMPANY, priority 2014, dated 2018)

Legend:
Type in all cases: in vivo
[1] = test system: large (Lg) crabgrass (Digitaria sanguinalis); assay: Test B pre-/postemergence plant response; conditions: for Crabgrass, Large plant response rating: 0 to 100 scale (0 no effect, 100 complete control)
Procedure, shortened: (§1)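 Visual injury scores on a 0–100 scale (100 = complete control) relative to untreated plants, taken about 10 days post-treatment in greenhouse. Treatments were a directed preemergence soil spray and a postemergence spray at one- to two-leaf stage, using surfactant-containing solvent formulation.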

[2] = test system: velvetleaf (Abutilon theophrasti); assay: Test B pre-/postemergence plant response; conditions: for Velvetleaf plant response rating: 0 to 100 scale (0 no effect, 100 complete control)
Procedure, shortened: as §1

[3] = test system: barnyardgrass (Echinochloa crus-galli); assay: Test B pre-/postemergence plant response; conditions: for Barnyardgrass plant response rating: 0 to 100 scale (0 no effect, 100 complete control)
Procedure, shortened: as §1

[4] = test system: corn (Zea mays); assay: Test B pre-/postemergence plant response; conditions: for Corn plant response rating: 0 to 100 scale (0 no effect, 100 complete control)
Procedure, shortened: as §1

[5] = test system: wheat (Triticum aestivum); assay: Test B pre-/postemergence plant response; conditions: for Wheat plant response rating: 0 to 100 scale (0 no effect, 100 complete control)
Procedure, shortened: as §1

[6] = test system: pigweed (Amaranthus retroflexus); assay: Test B pre-/postemergence plant response; conditions: for Pigweed plant response rating: 0 to 100 scale (0 no effect, 100 complete control)
Procedure, shortened: as §1

[7] = test system: giant foxtail (Setaria faberii); assay: Test B pre-/postemergence plant response; conditions: for Foxtail, Giant plant response rating: 0 to 100 scale (0 no effect, 100 complete control)
Procedure, shortened: as §1

[8] = test system: morningglory (Ipomoea spp.); assay: Test B pre-/postemergence plant response; conditions: for Morningglory plant response rating: 0 to 100 scale (0 no effect, 100 complete control)
Procedure, shortened: as §1

[9] = test system: small-flower umbrella sedge (Cyperus difformis); assay: Test C flooded paddy test plant response; conditions: Flood, 250 g ai/ha; scale of 0 to 100 where 0 is no effect and 100 is complete control; 13 to 15 days
Procedure, shortened: (§2)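 Plants grown to 2-leaf stage, flooded 3 cm above soil; compounds applied directly into paddy water, depth kept throughout. Visual rating versus controls after 13 to 15 days in greenhouse, 0 (no effect) to 100 (complete control).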

[10] = test system: rice (Oryza sativa); assay: Test C flooded paddy test plant response; conditions: Flood, 250 g ai/ha; scale of 0 to 100 where 0 is no effect and 100 is complete control; 13 to 15 days
Procedure, shortened: as §2

[11] = test system: barnyardgrass (Echinochloa crus-galli); assay: Test C flooded paddy test plant response; conditions: Flood, 250 g ai/ha; scale of 0 to 100 where 0 is no effect and 100 is complete control; 13 to 15 days
Procedure, shortened: as §2

[12] = test system: ducksalad (Heteranthera limosa); assay: Test C flooded paddy test plant response; conditions: Flood, 250 g ai/ha; scale of 0 to 100 where 0 is no effect and 100 is complete control; 13 to 15 days
Procedure, shortened: as §2

[13] = 125 g ai/ha, postemergence, 0 to 100 scale, 0 no effect, 100 complete control
[14] = 500 g ai/ha, postemergence, 0 to 100 scale, 0 no effect, 100 complete control
[15] = Preemergence, 500 g ai/ha, 0 to 100 scale where 0 is no effect and 100 is complete control

Structure (SMILES)	Plant response rating, Crabgrass, Large [1, 13]	Plant response rating, Crabgrass, Large [1, 14]	Crabgrass, Large plant response rating ([1]; Preemergence, 125 g ai/ha)	Plant response rating, Crabgrass, Large [1, 15]	Plant response rating, Velvetleaf [2, 13]	Plant response rating, Velvetleaf [2, 14]	Velvetleaf plant response rating ([2]; Preemergence, 125 g ai/ha)	Plant response rating, Velvetleaf [2, 15]	Plant response rating, Barnyardgrass [3, 13]	Plant response rating, Barnyardgrass [3, 14]	Barnyardgrass plant response rating ([3]; Preemergence, 125 g ai/ha)	Plant response rating, Barnyardgrass [3, 15]	Plant response rating, Corn [4, 13]	Plant response rating, Corn [4, 14]	Corn plant response rating ([4]; Preemergence, 125 g ai/ha)	Plant response rating, Corn [4, 15]	Plant response rating, Wheat [5, 13]	Plant response rating, Wheat [5, 14]	Wheat plant response rating ([5]; Preemergence, 125 g ai/ha)	Plant response rating, Wheat [5, 15]	further results
N#Cc1cccc(Oc2ncc(Cl)cn2)c1-c1ccc(Cl)cn1 [Compound 202]	10	70	90	100	10	30	0	60	10	40	10	80	0	30	0	0	0	0	0	20	Plant response rating, Pigweed [6, 13]: 90; Plant response rating, Pigweed [6, 14]: 100; Pigweed plant response rating ([6]; Preemergence, 125 g ai/ha): 100; Plant response rating, Pigweed [6, 15]: 100; Plant response rating, Foxtail, Giant [7, 13]: 30; Plant response rating, Foxtail, Giant [7, 14]: 80; Foxtail, Giant plant response rating ([7]; Preemergence, 125 g ai/ha): 70; Plant response rating, Foxtail, Giant [7, 15]: 100; Plant response rating, Morningglory [8, 13]: 10; Plant response rating, Morningglory [8, 14]: 40; Morningglory plant response rating ([8]; Preemergence, 125 g ai/ha): 0; Plant response rating, Morningglory [8, 15]: 20; Sedge, Umbrella plant response rating [9]: 80; Rice plant response rating [10]: 0; Barnyardgrass plant response rating [11]: 0; Ducksalad plant response rating [12]: 80
Clc1ccc(-c2ccc(Br)cc2Oc2ncc(Cl)cn2)nc1 [Compound 203]	0	0	0	0	0	0	0	0	0	0	0	0	0	0	0	0	0	0	0	0	Plant response rating, Pigweed [6, 13]: 0; Plant response rating, Pigweed [6, 14]: 0; Pigweed plant response rating ([6]; Preemergence, 125 g ai/ha): 0; Plant response rating, Pigweed [6, 15]: 0; Plant response rating, Foxtail, Giant [7, 13]: 0; Plant response rating, Foxtail, Giant [7, 14]: 0; Foxtail, Giant plant response rating ([7]; Preemergence, 125 g ai/ha): 0; Plant response rating, Foxtail, Giant [7, 15]: 0; Plant response rating, Morningglory [8, 13]: 0; Plant response rating, Morningglory [8, 14]: 0; Morningglory plant response rating ([8]; Preemergence, 125 g ai/ha): 0; Plant response rating, Morningglory [8, 15]: 0; Sedge, Umbrella plant response rating [9]: 0; Rice plant response rating [10]: 0; Barnyardgrass plant response rating [11]: 0; Ducksalad plant response rating [12]: 0
N#Cc1cccc(Oc2ncc(Br)cn2)c1-c1ccc(Cl)cn1 [Compound 204]	10	40	90	100	0	10	0	60	0	10	0	30	0	0	0	0	0	0	0	0	Plant response rating, Pigweed [6, 13]: 50; Plant response rating, Pigweed [6, 14]: 90; Pigweed plant response rating ([6]; Preemergence, 125 g ai/ha): 100; Plant response rating, Pigweed [6, 15]: 100; Plant response rating, Foxtail, Giant [7, 13]: 0; Plant response rating, Foxtail, Giant [7, 14]: 30; Foxtail, Giant plant response rating ([7]; Preemergence, 125 g ai/ha): 60; Plant response rating, Foxtail, Giant [7, 15]: 100; Plant response rating, Morningglory [8, 13]: 0; Plant response rating, Morningglory [8, 14]: 10; Morningglory plant response rating ([8]; Preemergence, 125 g ai/ha): 0; Plant response rating, Morningglory [8, 15]: 10; Sedge, Umbrella plant response rating [9]: 0; Rice plant response rating [10]: 0; Barnyardgrass plant response rating [11]: 0; Ducksalad plant response rating [12]: 0
